Assay results taken from US11957684B2, “Treatment of heavy menstrual bleeding associated with uterine fibroids” (Sumitomo Pharma Switzerland GmbH, priority 2016, dated 2024).
Read-outs that look alike come from different tables or passages of the source.

System: endometriosis-associated pain
Format: in vivo, human
Conditions: 3.75 mg sc/4 wk
Procedure: Subjects assessed and recorded their own quality of life (QOL) using the EHP-30 once a month during the study visit. As used in the examples, the VAS score was evaluated using a 100 mm scale. For pain intensity, the scale was anchored by “no pain” (score of 0) and “pain as bad as you can imagine” (score of 100). […] The above items were evaluated using a patient diary that was distributed by the sponsor. Subjects filled out the patient diary every day during the treatment period or until early termination. If taking prohibited analgesics, subjects recorded this fact in the patient diary along with the accompanying pain symptoms before use of analgesics. As used in the examples, pain during menstruation and pelvic pain unrelated to menstruation were evaluated using scores on the M-B&B and B&B. The M-B&B scores were recorded by subjects on the patient diary supplied by the sponsor. Subjects filled out the patient diary every day during the treatment period or until early termination. If taking prohibited analgesics, subjects recorded this fact in the patient diary along with the accompanying pain symptoms before use of analgesics. The investigator or subinvestigator assessed each patient's pain through interviews and filled out a B&B once a month. The items that were assessed are shown below. The M-B&B score included: dysmenorrhea (severe, moderate, mild, no pain, or no menstruation); pelvic pain (severe, moderate, mild, or no pain); deep dyspareunia (severe, moderate, mild, no pain, or no intercourse). The B&B score included: dysmenorrhea (severe, moderate, mild, none, or not applicable); dyspareunia (severe, moderate, mild, none, or not applicable); pelvic pain (severe, moderate, mild, or none); pelvic tenderness (severe, moderate, mild, or none); and induration (severe, moderate, mild, or none). As used in the examples, the EHP-30 score was obtained by subjects assessing and recording their own QOL using the EHP-30 questionnaire.

[1] = end of treatment, listed as leuprorelin

CCNC(=O)[C@@H]1CCCN1C(=O)[C@H](CCCNC(=N)N)NC(=O)[C@H](CC(C)C)NC(=O)[C@@H](CC(C)C)NC(=O)[C@H](Cc1ccc(O)cc1)NC(=O)[C@H](CO)NC(=O)[C@H](Cc1c[nH]c2ccccc12)NC(=O)[C@H](Cc1c[nH]cn1)NC(=O)[C@@H]1CCC(=O)N1 [leuprolide acetate, reference compound]
change from baseline in mean VAS, dysmenorrhea (Day 1-28): −9.985±15.7027 mm | change from baseline in mean VAS, dyspareunia (Day 1-28): −3.126±17.0520 mm | change from baseline in mean VAS, pelvic pain (Day 1-28): −4.282±7.3628 mm | mean VAS score, dysmenorrhea (Day 1-28): 17.133±19.4179 mm | mean VAS score, dyspareunia (Day 1-28): 7.288±16.2960 mm | mean VAS score, pelvic pain (Day 1-28): 10.899±14.8866 mm | change from baseline in mean VAS, dysmenorrhea (Day 57-84): −27.558±19.9878 mm | change from baseline in mean VAS, dyspareunia (Day 57-84): −6.752±10.5824 mm | change from baseline in mean VAS, pelvic pain (Day 57-84): −10.364±10.4428 mm | mean VAS score, dysmenorrhea (Day 57-84): 0.000±0.0000 mm | mean VAS score, dyspareunia (Day 57-84): 5.478±10.7612 mm | mean VAS score, pelvic pain (Day 57-84): 5.013±12.0454 mm | change from baseline in mean VAS, dysmenorrhea (Day 141-168): −28.373±20.7287 mm | change from baseline in mean VAS, dyspareunia (Day 141-168): −4.953±16.9523 mm | change from baseline in mean VAS, pelvic pain (Day 141-168): −13.804±12.8288 mm | mean VAS score, dysmenorrhea (Day 141-168): 0.000±0.0000 mm | mean VAS score, dyspareunia (Day 141-168): 5.565±12.5556 mm | mean VAS score, pelvic pain (Day 141-168): 2.167±5.1999 mm | change from baseline in EHP-30, Self-image (Week 24): −9.42±15.553 | change from baseline in EHP-30, control & powerlessness (Week 24): −24.80±23.839 | change from baseline in EHP-30, emotional well-being (Week 24): −12.37±18.332 | change from baseline in EHP-30, pain (Week 24): −26.38±20.341 | change from baseline in EHP-30, social support (Week 24): −10.46±17.923 | change from baseline in mean B&B score, dysmenorrhea (Week 24): −2.1±0.49 | change from baseline in mean B&B score, dyspareunia (Week 24): −0.5±0.88 | change from baseline in mean B&B score, induration (Week 24): −0.8±0.82 | change from baseline in mean B&B score, pelvic pain (Week 24): −1.2±0.72 | change from baseline in mean B&B score, pelvic tenderness (Week 24): −1.1±0.78 | subjects without pain in B&B score, dysmenorrhea (Week 24): 100% | subjects without pain in B&B score, dyspareunia (Week 24): 70.6% | subjects without pain in B&B score, induration (Week 24): 75.4% | subjects without pain in B&B score, pelvic pain (Week 24): 68.9% | subjects without pain in B&B score, pelvic tenderness (Week 24): 70.5% | change from baseline in maximum M-B&B score, dysmenorrhea (end of treatment): −1.9±0.69 | change from baseline in maximum M-B&B score, dyspareunia (end of treatment): −0.4±0.78 | change from baseline in maximum M-B&B score, pelvic pain (end of treatment): −1.3±0.82 | change from baseline in maximum VAS, dysmenorrhea (end of treatment): −51.8±27.01 mm | change from baseline in maximum VAS, dyspareunia (end of treatment): −10.3±19.76 mm | change from baseline in maximum VAS, pelvic pain (end of treatment): −46.8±26.29 mm | change from baseline in mean M-B&B score, deep dyspareunia (end of treatment): −0.208±0.5604 | change from baseline in mean M-B&B score, dysmenorrhea (end of treatment): −1.160±0.4802 | change from baseline in mean M-B&B score, pelvic pain (end of treatment): −0.483±0.4860 | change from baseline in mean VAS, dysmenorrhea (end of treatment): −26.944±19.9212 mm | change from baseline in mean VAS, dyspareunia (end of treatment): −4.593±15.0878 mm | change from baseline in mean VAS, pelvic pain (end of treatment): −12.552±12.5609 mm | change from baseline in mean score of amount of bleeding (0 to 5) (end of treatment): −2.320±0.7281 | change in proportion of days without pain (M-B&B), deep dyspareunia (end of treatment): 21.76±43.266% | change in proportion of days without pain (M-B&B), dysmenorrhea (end of treatment): 80.29±23.327% | change in proportion of days without pain (M-B&B), pelvic pain (end of treatment): 33.42±34.007% | change in proportion of days without pain (VAS), dysmenorrhea (end of treatment): 82.09±24.051% | change in proportion of days without pain (VAS), dyspareunia (end of treatment): 21.76±43.266% | change in proportion of days without pain (VAS), pelvic pain (end of treatment): 40.70±33.342% | mean VAS score, dysmenorrhea (end of treatment): 0.174±1.1623 mm | mean VAS score, dyspareunia (end of treatment): 4.913±10.6249 mm | mean VAS score, pelvic pain (end of treatment): 2.629±5.5783 mm | subjects who achieved amenorrhea (end of treatment): 97.5% | subjects without pain in M-B&B score, dysmenorrhea (end of treatment): 97.5% | subjects without pain in M-B&B score, dyspareunia (end of treatment): 56.5% | subjects without pain in M-B&B score, pelvic pain (end of treatment): 63.8% | subjects without pain in VAS score, dysmenorrhea (end of treatment): 97.5% | subjects without pain in VAS score, dyspareunia (end of treatment): 56.5% | subjects without pain in VAS score, pelvic pain (end of treatment): 56.8% | change from baseline in mean VAS, pelvic pain [1]: −12.552 mm | subjects without pain in VAS score, pelvic pain [1]: 57%
